Data from BindingDB's records for doi:10.7270/Q2X63KDM (Burnham Center For Chemical Genomics, 2010).

Biological target: Intestinal-type alkaline phosphatase (Homo sapiens, UniProt P09923)
Test: inhibition of human intestinal alkaline phosphatase – biochemical, dose response (AID 488876)

Sequence of Intestinal-type alkaline phosphatase (P09923 whole entry): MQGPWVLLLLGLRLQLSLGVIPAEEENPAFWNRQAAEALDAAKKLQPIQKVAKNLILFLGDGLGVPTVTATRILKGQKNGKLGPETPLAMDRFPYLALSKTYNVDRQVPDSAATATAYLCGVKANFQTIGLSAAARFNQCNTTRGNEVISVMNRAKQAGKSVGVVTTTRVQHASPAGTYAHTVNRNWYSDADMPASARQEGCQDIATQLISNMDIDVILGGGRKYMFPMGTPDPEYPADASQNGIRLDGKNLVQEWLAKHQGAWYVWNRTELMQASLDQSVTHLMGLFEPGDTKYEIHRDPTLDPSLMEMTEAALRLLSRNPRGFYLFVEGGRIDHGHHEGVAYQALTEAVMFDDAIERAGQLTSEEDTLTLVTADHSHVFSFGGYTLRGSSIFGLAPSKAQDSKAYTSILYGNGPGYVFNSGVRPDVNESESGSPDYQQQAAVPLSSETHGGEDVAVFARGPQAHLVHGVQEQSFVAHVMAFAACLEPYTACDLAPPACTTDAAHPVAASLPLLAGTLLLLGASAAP

SMILES	IC50
Cc1ccc(Cl)c2c1NC(=O)/C2=C1/NC(=S)NC1=O	> 100 µM
Nc1nnc(CC(=O)N/N=C/C2C=C([N+](=O)[O-])C=C(Br)C2=O)s1 (centres undefined) [2-(5-azanyl-1,3,4-thiadiazol-2-yl)-N'-[(E)-(5-bromanyl-3-nitro-6-oxidanylidene-cyclohexa-2,4-dien-1-ylidene)methyl]ethanehydrazide]	> 100 µM
NS(=O)(=O)c1cc(C(=O)NNC2=c3ccccc3=NC2=O)ccc1Cl [2-chloro-5-[[(2-oxoindol-3-yl)amino]carbamoyl]benzenesulfonamide]	> 100 µM
COc1cc(C=Nn2c(O)csc2=S)ccc1O [3-[[(E)-(3-methoxy-4-oxidanylidene-cyclohexa-2,5-dien-1-ylidene)methyl]amino]-2-sulfanylidene-1,3-thiazolidin-4-one]	21.3 µM
Oc1ccc(C=Nn2c(O)csc2=S)c(O)c1O [3-[[(E)-[2,3-bis(oxidanyl)-4-oxidanylidene-cyclohexa-2,5-dien-1-ylidene]methyl]amino]-2-sulfanylidene-1,3-thiazolidin-4-one]	> 100 µM
CC1NON=C1C(=O)NN=CC1=CC(=O)C(=O)C=C1 (centres undefined) [4-Methyl-furazan-3-carboxylic acid (3,4-dihydroxy-benzylidene)-hydrazide]	14 µM
Cc1ccc(/C=C2\SC(=S)N(/N=C/C3C=C([N+](=O)[O-])C=CC3=O)C2=O)o1 (centres undefined) [(5Z)-5-[(5-methylfuran-2-yl)methylidene]-3-[[(E)-(3-nitro-6-oxocyclohexa-2,4-dien-1-ylidene)methyl]amino]-2-sulfanylidene-1,3-thiazolidin-4-one]	80 µM
C#CCOCCOCCOCCNc1nc(N2CCN(C(=O)CCCCCCCCCCNC(=O)[C@H]([C@@H](C)CC)n3cc(CCCCN=C(N)N)nn3)CC2)nc(N2CCN(C(=O)CCCCCCCCCCNC(=O)[C@@H]([C@H](C)O)n3cc(C)nn3)CC2)n1 [GT-RI]	86.3 µM
C#CCOCCOCCOCCNc1nc(N2CCN(C(=O)CCCCCCCCCCNC(=O)Cn3cc(CCCCCN)nn3)CC2)nc(N2CCN(C(=O)CCCCCCCCCCNC(=O)Cn3cc(C[C@@H](C)O)nn3)CC2)n1 [KG-TG]	> 100 µM
O=C1C=CC(C=NNC(=S)Nc2ccccc2[N+](=O)[O-])C=C1O (centres undefined) [MLS000417596]	> 100 µM
C#CCOCCOCCOCCNc1nc(N2CCN(C(=O)CCCCCCCCCCNC(=O)[C@@H](CCSC)n3cc(CCO)nn3)CC2)nc(N2CCN(C(=O)CCCCCCCCCCNC(=O)[C@H]([C@@H](C)CC)n3cc(CCCCCN)nn3)CC2)n1 [MLS002153719]	14.3 µM
O=C(Nn1c(O)csc1=S)C(=O)Nn1c(O)csc1=S [SMR000349781]	> 100 µM
O=C1C=CC(/C=C/c2nc(O)c([N+](=O)[O-])c(=O)[nH]2)C=C1O (centres undefined) [SMR000524347]	4.34 µM
COc1cc(C=CC(=O)CC(=O)C=Cc2ccc(O)cc2)ccc1O [demethoxycurcumin]	> 100 µM
